# Laboratory results published in patent US8163536B2, “Device for preparing an undifferentiated cell from a more committed cell” (Tristem Trading (Cyprus) Limited, priority 2000, dated 2012).
# Legend:
# [1] = tested on: enriched, purified, normal B lymphocytes; experiment: Flow cytometry of enriched, purified, normal B lymphocytes treated with one of three agents (FIG. 20); assay type: cell-based, human; conditions: compared with the negative control
# Description: Initial studies actually identified three agents—granulocyte/monocyte-colony stimulating factor (GM-CSF), erythropoietin and mAb CR3/43. A preparation of enriched, purified, normal B lymphocytes was treated in a device according to the present invention with one of these three agents in a similar manner to that described for CR3/43 and TAL.1B5 above and treated samples examined by flow cytometry as described above. […] In particular, all three agents increased the relative number of CD34^+ cells in the cell population (see FIG. 20).
# [2] = tested on: displaced cells; conditions: pre-determined period, then calcium containing medium containing cortisone
# Description: The erythroid progenitors can be cultured and expanded for long periods of time and may be used in the treatment red blood disorder and red blood shortages.
compound,measurement,setting,value
"GM-CSF: granulocyte/monocyte-colony stimulating factor, haematopoietic growth factor",relative number of CD34+ cells in the cell population (FIG. 20),[1],increased
O=C(O)CN(CCN(CC(=O)O)CC(=O)O)CC(=O)O [EDTA],retrodifferentiation of more committed cells,[2],caused more committed cells to retrodifferentiate into undifferentiated cells
